≈ marks a conversion by molar mass, not a printed value. Where “and” joins values, the source holds several entries; their conditions need not be identical. Equal values may be shown once. Read-outs that look alike come from different tables or passages of the source.
Columns and labels:
physchem [1] = conditions: concentrated aqueous POM polymer solution, pH 7, aqueous with cosolvent or surfactant or cyclodextrin, thermodynamic from solid, Total concentration of solubilized active ingredient, ambient temperature
[2] = pH 7.0, ambient temperature
physchem [3] = conditions: pH 7, aqueous buffer, thermodynamic from solid, solubility in the absence of polymer
Procedure: 40 to 50 mg of carvedilol base are introduced into a 15 ml Falcon tube. 5 ml of aqueous solution of concentrated POM polymer at 20 mg/ml and at pH 7.0 are added. […] After this stage, the preparation is centrifuged at 9,000 rpm for 30 minutes in order to eliminate any undissolved crystals. […] It is diluted 1,000 times with a phosphate buffer at pH 7.0. The concentration of solubilized carvedilol is determined by UV spectrometry (at a wavelength of 240 nm and using a cell with a 1 cm optical path).

[4] = Solubilization of ketoconazole in concentrated POM polymer solution (visual check); format: physicochemical; conditions: for solubility: pH 7, aqueous with cosolvent or surfactant or cyclodextrin, thermodynamic from solid
[5] = remark: listed apart in the source
Procedure: The preparation is centrifuged at 9,000 rpm for 30 minutes.

physchem [6] = conditions: thermodynamic from solid
physchem [7] = conditions: for solubility at […]: 37 °C, pH 7, aqueous buffer, thermodynamic from solid
Procedure: 0.49 mg of paclitaxel (Bioxel) is introduced into a 2 liter volumetric flask. The flask is topped up to the fill line with a 0.05 M phosphate buffer at pH 7.0. The preparation is stirred using a magnetic bar, at 37° C.
The preparation is then placed in an ultrasonic bath for 60 min at ambient temperature.

[8] = Solubilization of paclitaxel in concentrated aqueous POM polymer solution (visual check); format: physicochemical; conditions: for solubility: concentrated aqueous POM polymer solution
Procedure: 21.21 mg of paclitaxel (Bioxel) are introduced into a pill-box.
39.68 mg of paclitaxel (Bioxel) are introduced into a pill-box.
35.05 mg of paclitaxel (Bioxel) are introduced into a pill-box.

[9] = background statement; cited from earlier work
[10] = Solubilization of paclitaxel in aqueous POM polymer solution at 20 mg/ml (visual check); format: physicochemical; conditions: for Solubilized active ingredient in μmol per g of polymer / Total concentration of active ingredient solibilized for 20 g/l of polymer: 20 g/l, pH 7.0, ambient temperature
Procedure: 4.99 mg of paclitaxel (Bioxel) are introduced into a pill-box.
10.33 mg of paclitaxel (Bioxel) are introduced into a pill-box.
7 mg of paclitaxel (Bioxel) are introduced into a pill-box.

[11] = sodium polyglutamate DP=100, 10% VE, 52.8 mg/ml
[12] = sodium polyglutamate DP=100, 15% VE, 84.6 mg/ml
[13] = sodium polyglutamate DP=100, 20% VE, 156 mg/ml
[14] = sodium polyglutamate DP=100, 10% VE, 52.8 mg/ml, pH 7.0, ambient temperature
[15] = sodium polyglutamate DP=100, 15% VE, 84.6 mg/ml, pH 7.0, ambient temperature
[16] = sodium polyglutamate DP=100, 20% VE, 156 mg/ml, pH 7.0, ambient temperature
[17] = sodium polyglutamate DP=100, 30% VE, 53.5 mg/ml, pH 7.0, ambient temperature
[18] = sodium polyglutamate DP=100, 5% VE
[19] = sodium polyglutamate DP=100, 10% VE
[20] = sodium polyglutamate DP=100, 15% VE
[21] = sodium polyglutamate DP=100, 20% VE

Structure (SMILES): COc1ccccc1OCCNCC(O)COc1cccc2[nH]c3ccccc3c12 (centres unmarked) [carvedilol base, carvedilol]
- solubility (physchem [1]; [11]): 33.7 mM (≈ 13700 µg/mL)
- solubility (physchem [1]; [12]): 40.1 mM (≈ 16300 µg/mL)
- solubility (physchem [1]; [13]): 84.6 mM (≈ 34400 µg/mL)
- Solubilized active ingredient in μmol per g of polymer [2, 11]: 638 μmol per g of polymer
- Solubilized active ingredient in μmol per g of polymer [2, 12]: 474 μmol per g of polymer
- Solubilized active ingredient in μmol per g of polymer [2, 13]: 543 μmol per g of polymer
- solubility at 90 min (physchem [3]): 0.12 mM (≈ 48.8 µg/mL)
- Solubilized active ingredient in μmol per g of polymer (pH 7): 28 μmol per g of polymer
- Total concentration of solubilized active ingredient for 20 g/l of polymer (pH 7): 0.000565 mol/L

Structure (SMILES): CC(=O)N1CCN(c2ccc(OCC3COC(Cn4ccnc4)(c4ccc(Cl)cc4Cl)O3)cc2)CC1 (centres unmarked) [ketoconazole]
- solubility ([4]; concentrated aqueous POM polymer solution, concentrated polymers DP=100 containing between 15% and 20% vitamin E, read-out: concentrations of solubilized active ingredient): > 30 mM
- solubility ([4]; concentrated aqueous POM polymer solution, sodium polyglutamate DP=100, 15% VE, 84.6 mg/ml, pH 7.0, ambient temperature, read-out: Total concentration of solubilized active ingredient): 31.1 mM (≈ 16500 µg/mL)
- solubility ([4]; sodium polyglutamate DP=100, 10% VE, 52.8 mg/ml, pH 7.0, ambient temperature, read-out: Total concentration of solubilized active ingredient): 16 mM (≈ 8500 µg/mL)
- solubility ([4]; sodium polyglutamate DP=100, 20% VE, 156 mg/ml, pH 7.0, ambient temperature, read-out: Total concentration of solubilized active ingredient): 53.5 mM (≈ 28400 µg/mL)
- solubility ([4]; sodium polyglutamate DP=100, 30% VE, 53.5 mg/ml, pH 7.0, ambient temperature, read-out: Total concentration of solubilized active ingredient): 14.1 mM (≈ 7490 µg/mL)
- Solubilized active ingredient in μmol per g of polymer [4, 14]: 303 μmol per g of polymer
- Solubilized active ingredient in μmol per g of polymer [4, 15]: 367 μmol per g of polymer
- Solubilized active ingredient in μmol per g of polymer [4, 16]: 343 μmol per g of polymer
- Solubilized active ingredient in μmol per g of polymer [4, 17]: 264 μmol per g of polymer
- Solubilized active ingredient in μmol per g of polymer (sodium polyglutamate DP=100, 2% VE, 20 g/l, pH 7.0, ambient temperature): 28 μmol per g of polymer
- Solubilized active ingredient in μmol per g of polymer (sodium polyglutamate DP=100, 5% VE, 20 g/l, pH 7.0, ambient temperature): 127 μmol per g of polymer
- Solubilized active ingredient in μmol per g of polymer (sodium polyglutamate DP=100, 10% VE, 20 g/l, pH 7.0, ambient temperature): 358 μmol per g of polymer
- Solubilized active ingredient in μmol per g of polymer (sodium polyglutamate DP=100, 15% VE, 20 g/l, pH 7.0, ambient temperature): 358 μmol per g of polymer
- Solubilized active ingredient in μmol per g of polymer (sodium polyglutamate DP=100, 20% VE, 20 g/l, pH 7.0, ambient temperature): 348 μmol per g of polymer
- factor of increase of solubility [5]: approximately 200
- solubility (physchem [6]; aqueous POM polymer solution, pH 7, aqueous with cosolvent or surfactant or cyclodextrin, Total concentration of solubilized active ingredient for 20 g/l of polymer, sodium polyglutamate DP=100, 2% VE, 20 g/l, pH 7.0, ambient temperature): 0.565 mM (≈ 300 µg/mL)
- solubility (physchem [6]; aqueous POM polymer solution, pH 7, aqueous with cosolvent or surfactant or cyclodextrin, Total concentration of solubilized active ingredient for 20 g/l of polymer, sodium polyglutamate DP=100, 5% VE, 20 g/l, pH 7.0, ambient temperature): 2.54 mM (≈ 1350 µg/mL)
- solubility (physchem [6]; aqueous POM polymer solution, pH 7, aqueous with cosolvent or surfactant or cyclodextrin, Total concentration of solubilized active ingredient for 20 g/l of polymer, sodium polyglutamate DP=100, 10% VE, 20 g/l, pH 7.0, ambient temperature): 7.16 mM (≈ 3810 µg/mL)
- solubility (physchem [6]; aqueous POM polymer solution, pH 7, aqueous with cosolvent or surfactant or cyclodextrin, Total concentration of solubilized active ingredient for 20 g/l of polymer, sodium polyglutamate DP=100, 15% VE, 20 g/l, pH 7.0, ambient temperature): 7.16 mM (≈ 3810 µg/mL)
- solubility (physchem [6]; aqueous POM polymer solution, pH 7, aqueous with cosolvent or surfactant or cyclodextrin, Total concentration of solubilized active ingredient for 20 g/l of polymer, sodium polyglutamate DP=100, 20% VE, 20 g/l, pH 7.0, ambient temperature): 6.97 mM (≈ 3700 µg/mL)
- solubility (physchem [6]; aqueous medium without polymer, pH 7, aqueous buffer, solubility in the absence of polymer, pH 7.0, absence of polymer): ~0.02 mM (≈ 10.6 µg/mL)

Structure (SMILES): CC(=O)O[C@H]1C(=O)[C@@]2(C)[C@H]([C@H](OC(=O)c3ccccc3)[C@]3(O)C[C@H](OC(=O)[C@H](O)[C@@H](NC(=O)c4ccccc4)c4ccccc4)C(C)=C1C3(C)C)[C@]1(OC(C)=O)CO[C@@H]1C[C@@H]2O [paclitaxel]
- appearance after ultrasonic treatment (physchem [7]; 0.49 mg paclitaxel in 2 liter 0.05 M phosphate buffer pH 7.0, after stirring, ultrasonic bath 60 min at ambient temperature): A few grains of powder are still undissolved
- appearance after magnetic stirring (physchem [7]; 0.49 mg paclitaxel in 2 liter 0.05 M phosphate buffer pH 7.0, magnetic stirring […] at 37° C.): a few grains of undissolved powder remain
- solubility at […] (physchem [7]; solubility in an aqueous buffer): < 0.25 µg/mL and < 0.3 µM
- solubility at […] (physchem [7]; solubility of the active ingredient measured without polymer): 0.0003 mM (≈ 0.256 µg/mL)
- μmol of paclitaxel per gram of POM polymer ([8]; 90 mg/ml polyglutamate 20% VE): 49 μmol per gram of POM polymer
- solubility at 5 h ([8]; aqueous polyglutamate (POM) polymer solution, pH 7, aqueous with cosolvent or surfactant or cyclodextrin, thermodynamic from solid, 90 mg/ml polyglutamate 20% VE): 3500 to 4000 µg/mL (≈ 4100 to 4680 µM)
- solubility ([8]; pH 7, aqueous with cosolvent or surfactant or cyclodextrin, thermodynamic from solid, concentrated polymers DP=100 containing between 15% and 20% vitamin E, read-out: concentrations of solubilized active ingredient): > 3 mM
- solubility ([8]; pH 7, aqueous with cosolvent or surfactant or cyclodextrin, thermodynamic from solid, sodium polyglutamate DP=100, 10% VE, 52.8 mg/ml, pH 7.0, ambient temperature, read-out: Total concentration of solubilized active ingredient): 1.5 mM (≈ 1280 µg/mL)
- solubility ([8]; pH 7, aqueous with cosolvent or surfactant or cyclodextrin, thermodynamic from solid, sodium polyglutamate DP=100, 15% VE, 84.6 mg/ml, pH 7.0, ambient temperature, read-out: Total concentration of solubilized active ingredient): 3.5 mM (≈ 2990 µg/mL)
- solubility ([8]; pH 7, aqueous with cosolvent or surfactant or cyclodextrin, thermodynamic from solid, sodium polyglutamate DP=100, 20% VE, 156 mg/ml, pH 7.0, ambient temperature, read-out: Total concentration of solubilized active ingredient): 6.4 mM (≈ 5470 µg/mL)
- solubility ([8]; pH 7, aqueous with cosolvent or surfactant or cyclodextrin, thermodynamic from solid, sodium polyglutamate DP=100, 30% VE, 53.5 mg/ml, pH 7.0, ambient temperature, read-out: Total concentration of solubilized active ingredient): < 1.4 mM
- Solubilized active ingredient in μmol per g of polymer [8, 14]: 29 μmol per g of polymer
- Solubilized active ingredient in μmol per g of polymer [8, 15]: 42 μmol per g of polymer
- Solubilized active ingredient in μmol per g of polymer [8, 16]: 41 μmol per g of polymer
- Solubilized active ingredient in μmol per g of polymer [8, 17]: <26 μmol per g of polymer
- aqueous solubility [9]: less than 1 μg/ml
- μmol of paclitaxel per gram of POM polymer ([10]; 20 mg/ml polyglutamate DP=100, 20% VE): 47 μmol per gram of POM polymer
- solubility at […] ([10]; aqueous polyglutamate (POM) polymer solution, pH 7, aqueous with cosolvent or surfactant or cyclodextrin, thermodynamic from solid, 20 mg/ml polyglutamate DP=100, 20% VE): ~800 µg/mL (≈ 937 µM)
- Solubilized active ingredient in μmol per g of polymer [10, 18]: 12 μmol per g of polymer
- Total concentration of active ingredient solibilized for 20 g/l of polymer [10, 18]: 0.00023 mol/L
- Solubilized active ingredient in μmol per g of polymer [10, 19]: 29 μmol per g of polymer
- Total concentration of active ingredient solibilized for 20 g/l of polymer [10, 19]: 0.00059 mol/L
- Solubilized active ingredient in μmol per g of polymer [10, 20]: 47 μmol per g of polymer
- Total concentration of active ingredient solibilized for 20 g/l of polymer [10, 20]: 0.00094 mol/L
- Solubilized active ingredient in μmol per g of polymer [10, 21]: 47 μmol per g of polymer
- Total concentration of active ingredient solibilized for 20 g/l of polymer [10, 21]: 0.00094 mol/L
